What follows are compounds tested on Phytophthora infestans (assay: not given). Conditions: tomato, protective, after 6 days, untreated control 90.
Assay type: in vivo

| SMILES | Infection (%) at 600 ppm C1 [%] |
| --- | --- |
| CC(C)(C)C(O)C(CCCc1ccc(Cl)cc1Cl)n1cncn1 (stereo not shown) | 7 |
| CC(Cc1ccc(Cl)cc1Cl)CC(C(O)C(C)(C)C)n1cncn1 (stereo not shown) [reference compound] | 90 |

What follows are compounds tested on Botrytis cinerea (assay: C2: gray mold on bell pepper leaves caused by Botrytis cinerea, 1 day protective application (comparison with the prior art)). Conditions: after 5 days, untreated control 100.
Assay type: in vivo
Experimental: The active compounds were prepared separately as a stock solution with 25 mg of active compound, which was made up to 10 ml with a mixture of acetone and/or DMSO and the emulsifier Uniperol® EL (wetting agent with emulsifying and dispersing action based on ethoxylated alkylphenols) in the volume ratio solvent/emulsifier of from 99 to 1. Subsequently, it was made up to 100 ml with water. This stock solution was diluted with the described solvent/emulsifier/water mixture to the active compound concentration indicated below. Alternatively, the active compounds were used as a commercially available ready-to-use solution and diluted with water to the active compound concentration indicated. Bell pepper seedlings were, after 2-3 leaves were well developed, sprayed to run off point with an aqueous suspension having the active compound concentration stated below. The next day, the treated plants were inoculated with a spore suspension of Botrytis cinerea in a 2% biomalt solution. The test plants were then placed in a dark acclimatized chamber at 22 to 24° C. and high atmospheric humidity. After 5 days, the extent of the fungal infection on the leaves could be determined visually in %.

| SMILES | Infection (%) at 600 ppm C2 [%] |
| --- | --- |
| CC(C)(C)C(O)C(CCCc1cccc(Cl)c1)n1cncn1 (stereo not shown) | 15 |
| CC(C)(C)C(O)C(CCCc1ccccc1Cl)n1cncn1 (stereo not shown) [drawing 19] | 7 |
| CC(C)(C)C(O)C(CCCc1ccccc1Cl)n1cncn1 (stereo not shown) [drawing 21] | 10 |
| CC(C)(C)C(O)C(CCCc1ccc(Cl)cc1)n1cncn1 (stereo not shown) [reference compound] | 70 |

What follows are compounds tested on Phakopsora pachyrhizi (assay: Example G2: curative activity against soybean rust caused by Phakopsora pachyrhizi (greenhouse)). Conditions: 600 ppm; soybean seedlings, curative spray two days after inoculation, assessed after a further 10 days; untreated plants 100% infected.
Assay type: in vivo

| SMILES | infection [%] |
| --- | --- |
| CC(Cc1cc(F)ccc1F)CC(C(O)C(C)(C)C)n1cncn1 (mixture of isomers) [I.A26b] | 0 |
| CC(Cc1ccc(F)cc1F)CC(C(O)C(C)(C)C)n1cncn1 (mixture of isomers) [I.A30a] | 0 |
| CC(CCC(C(O)C(C)(C)C)n1cncn1)c1ccccc1F (mixture of isomers) [I.A36b] | 0 |
| CC(Cc1cccc(Cl)c1)CC(C(O)C(C)(C)C)n1cncn1 (mixture of isomers) [I.A39a] | 0 |
| CC(C)(C)C(O)C(CCCc1cc(F)ccc1F)n1cncn1 (racemic) [I.A24b] | 0 |
| CC(C)(C)C(O)C(CCCc1cccc(F)c1F)n1cncn1 (racemic) [I.A25b] | 0 |
| CC(Cc1ccc(F)cc1F)CC(C(O)C(C)(C)C)n1cncn1 (stereo not shown) [I.A30b, 7-(2,4-difluorophenyl)-2,2,6-trimethyl-4-[1,2,4]triazol-1-ylheptan-3-ol] | 0 |
